How the values were obtained:
[1] = biological target: T1, human EHMT2 913-1193 (Homo sapiens, UniProt Q96KQ7); assay: EHMT2 enzyme assay on histone peptide substrate (EHMT2 PEP); format: biochemical; conditions: Table II; read-out: EHMT2 PEP (IC50 μM)
T1 construct: recombinant purified human EHMT2 913-1193, Viva; purchased Viva
T1 sequence (Q96KQ7 913-1193): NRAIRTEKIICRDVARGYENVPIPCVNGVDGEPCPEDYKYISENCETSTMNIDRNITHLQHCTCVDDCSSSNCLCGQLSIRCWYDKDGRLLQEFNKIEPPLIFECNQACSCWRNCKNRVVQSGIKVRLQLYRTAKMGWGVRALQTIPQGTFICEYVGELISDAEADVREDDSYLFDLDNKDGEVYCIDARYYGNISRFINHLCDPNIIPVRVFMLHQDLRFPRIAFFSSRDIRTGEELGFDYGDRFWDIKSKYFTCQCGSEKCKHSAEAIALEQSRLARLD
Method in brief: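 Compounds were tested as 3-fold dilutions, 10 points from a 50 μM final top (2% DMSO), after 30-min preincubation with 0.031 nM enzyme in Bicine buffer pH 7.5. Transfer of ^3H-methyl from ^3H-SAM to biotinylated histone peptide ran 60 min at room temperature and was detected by streptavidin Flashplate scintillation.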

[2] = biological target: T2, EHMT1 (Homo sapiens, UniProt Q9H9B1); assay: EHMT1 enzyme assay on peptide substrate (EHMT1 PEP); format: biochemical; conditions: Table II; read-out: EHMT1 PEP (IC50 μM)
T2 sequence (Q9H9B1 1-1298): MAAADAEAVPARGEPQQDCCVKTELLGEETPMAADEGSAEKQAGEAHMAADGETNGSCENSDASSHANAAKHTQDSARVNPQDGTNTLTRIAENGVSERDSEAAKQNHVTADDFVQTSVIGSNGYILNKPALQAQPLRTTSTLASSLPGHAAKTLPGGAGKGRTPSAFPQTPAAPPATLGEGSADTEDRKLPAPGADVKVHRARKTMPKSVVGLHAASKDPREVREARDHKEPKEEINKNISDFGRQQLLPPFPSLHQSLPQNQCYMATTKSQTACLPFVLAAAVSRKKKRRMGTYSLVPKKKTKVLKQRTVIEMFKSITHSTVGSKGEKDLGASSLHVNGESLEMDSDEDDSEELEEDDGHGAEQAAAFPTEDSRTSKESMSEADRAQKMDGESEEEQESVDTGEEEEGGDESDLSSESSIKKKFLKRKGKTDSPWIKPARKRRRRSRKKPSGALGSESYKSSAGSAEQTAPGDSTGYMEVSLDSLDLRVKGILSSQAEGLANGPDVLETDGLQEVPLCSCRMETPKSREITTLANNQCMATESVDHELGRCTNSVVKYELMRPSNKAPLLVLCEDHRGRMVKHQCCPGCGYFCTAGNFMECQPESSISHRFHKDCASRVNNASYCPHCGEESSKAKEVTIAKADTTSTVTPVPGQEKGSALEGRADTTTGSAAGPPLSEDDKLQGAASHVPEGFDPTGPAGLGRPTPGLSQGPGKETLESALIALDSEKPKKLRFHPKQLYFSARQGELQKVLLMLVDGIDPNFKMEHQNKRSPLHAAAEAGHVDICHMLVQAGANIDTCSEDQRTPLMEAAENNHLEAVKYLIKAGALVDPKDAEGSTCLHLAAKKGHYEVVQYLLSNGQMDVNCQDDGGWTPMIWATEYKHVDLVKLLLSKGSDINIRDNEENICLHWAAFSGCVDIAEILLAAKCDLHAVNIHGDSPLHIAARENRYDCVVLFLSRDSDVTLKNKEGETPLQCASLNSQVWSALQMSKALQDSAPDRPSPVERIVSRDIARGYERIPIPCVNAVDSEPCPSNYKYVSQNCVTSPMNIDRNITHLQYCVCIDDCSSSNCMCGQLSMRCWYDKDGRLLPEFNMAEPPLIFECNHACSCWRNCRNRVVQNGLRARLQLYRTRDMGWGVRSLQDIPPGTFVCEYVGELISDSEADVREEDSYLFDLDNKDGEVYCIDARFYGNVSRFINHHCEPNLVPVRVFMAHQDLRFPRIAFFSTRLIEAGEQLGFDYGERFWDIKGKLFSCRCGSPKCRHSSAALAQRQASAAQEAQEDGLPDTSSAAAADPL

IC50 [1] [µM] | IC50 [2] [µM] | SMILES
< 0.1 | < 0.1 | COc1ccc(Nc2nccc(NCC3CCN(C(C)=O)CC3)n2)cc1OCCCN1CCCC1 [Compound 47, 1-(4-(((2-((4-methoxy-3-(3-(pyrrolidin-1-yl)propoxy)phenyl)amino)pyrimidin-4-yl)amino)methyl)piperidin-1-yl)ethan-1-one]
> 10 | > 10 | COc1ccc(Nc2nccc(-c3cnn(C)c3)n2)cc1OCCCN1CCCC1 [Compound 224]
< 0.1 | 0.1 to 1 | COc1cccc(CNc2ccnc(Nc3ccc(OC)c(OCCCN4CCCC4)c3)n2)c1 [Compound 26]
0.1 to 1 | 0.1 to 1 | CNc1nc(C)cc(Nc2ccc(OC)c(OCCCN3CCCC3)c2)n1 [Compound 208]
0.1 to 1 | 0.1 to 1 | COc1ccc(Nc2nccc(NCC3CCN(C(C)=O)CC3)n2)cc1COCCN1CCCC1 [Compound 48]
0.1 to 1 | 0.1 to 1 | CNc1ccnc(Nc2ccc(OC)c(OCCCN3CCCC3)c2)c1 [Compound 209, N^2-(4-methoxy-3-(3-(pyrrolidin-1-yl)propoxy)phenyl)-N^4-methylpyridine-2,4-diamine]
> 10 | > 10 | CNc1ncc(C(F)(F)F)c(Nc2ccc(OC)c(OCCCN3CCCC3)c2)n1 [Compound 235]
0.1 to 1 | 1 to 10 | COc1ccc(Nc2nccc(NCC3CCOCC3)n2)cc1NCCCN1CCCC1 [Compound 226]
< 0.1 | < 0.1 | COc1ccc(Nc2nc(C)cc(NCC3CCN(C(C)=O)CC3)n2)cc1OCCCN1CCCC1 [Compound 19, 1-(4-(((2-((4-methoxy-3-(3-(pyrrolidin-1-yl)propoxy)phenyl)amino)-6-methylpyrimidin-4-yl)amino)methyl)piperidin-1-yl)ethan-1-one]
< 0.1 | 0.1 to 1 | COc1ccc(Nc2nccc(NCCNC(C)=O)n2)cc1OCCCN1CCCC1 [Compound 38]
> 10 | > 10 | COc1ccc(NCCCN2CCCC2)cc1Nc1nccc(NCC2CCOCC2)n1 [Compound 228]
0.1 to 1 | 0.1 to 1 | COc1ccc(Nc2nccc(N)n2)cc1OCCCN1CCCC1 [Compound 245]
> 10 | > 10 | CNc1nc(Nc2ccc(OC)c(OCCCN3CCCC3)c2)ncc1C(F)(F)F [Compound 234]
< 0.1 | 0.1 to 1 | COc1ccc(Nc2nccc(NCc3cc[nH]n3)n2)cc1OCCCN1CCCC1 [Compound 46]
> 10 | > 10 | COc1ccc(Nc2nccc(-n3nc(C)cc3C)n2)cc1OCCCN1CCCC1 [Compound 214]
0.1 to 1 | 0.1 to 1 | COc1ccc(Nc2nccc(NC3CCCCC3)n2)cc1OCCCN1CCCC1 [Compound 50]

IC50 [1] [µM] | IC50 [2] [µM] | SMILES
< 0.1 | 0.1 to 1 | COc1ccc(Nc2nccc(NCc3cnn(C)c3)n2)cc1OCCCN1CCCC1 [Compound 30]
0.1 to 1 | 0.1 to 1 | COc1ccc(Nc2cccc(NC3CCC3)n2)cc1OCCCN1CCCC1 [Compound 35]
0.1 to 1 | 0.1 to 1 | CNc1nc(Nc2ccc(OC)c(OCCCN3CCCC3)c2)nc(C)c1F [Compound 236]
< 0.1 | < 0.1 | COCCCNc1ccnc(Nc2ccc(OC)c(OCCCN3CCCC3)c2)n1 [Compound 22]
> 10 | > 10 | COc1ccc(Nc2cccc3ncnn23)cc1OCCCN1CCCC1 [Compound 220]
> 10 | > 10 | COc1ccc(Nc2nccc(CNC3CCOCC3)n2)cc1OCCCNc1ccccc1 [Compound 241]
0.1 to 1 | 0.1 to 1 | COc1ccc(Nc2nccc(NCCS(=O)(=O)N(C)C)n2)cc1OCCCN1CCCC1 [Compound 43]
< 0.1 | 0.1 to 1 | COc1ccc(Nc2nccc(NCC3CCN(c4ccccc4)CC3)n2)cc1OCCCN1CCCC1 [Compound 33]
1 to 10 | 1 to 10 | COc1ccc(Nc2ccnc3[nH]ccc23)cc1OCCCN1CCCC1 [Compound 250]
> 10 | > 10 | COc1ccc(OCCCN2CCCC2)cc1Nc1nccc(NCC2CCOCC2)n1 [Compound 227]
< 0.1 | < 0.1 | COc1ccc(Nc2nccc(NCC3CCN(C)CC3)n2)cc1OCCCN1CCCC1 [Compound 32]
0.1 to 1 | 0.1 to 1 | COc1ccc(Nc2nccc(NCC3CCN(C(C)=O)CC3)n2)cc1OCC1CCN(C)C1 (centres unmarked) [Compound 18, 1-(4-(((2-((4-methoxy-3-((1-methylpyrrolidin-3-yl)methoxy)phenyl)amino)pyrimidin-4-yl)amino)methyl)piperidin-1-yl)ethan-1-one]
0.1 to 1 | 0.1 to 1 | CNc1nccc(Nc2ccc(OC)c(OCCCN3CCCC3)c2)n1 [Compound 231]
1 to 10 | 1 to 10 | CNc1ccnc(Nc2ccc(OC)c(OCCCN3CCOCC3)c2)n1 [Compound 210]
> 10 | > 10 | COc1ccc(Nc2ccc3ncn(C)c3n2)cc1OCCCN1CCCC1 [Compound 218]

From US20210198277A1, “AMINE-SUBSTITUTED ARYL OR HETEROARYL COMPOUNDS” (Epizyme, Inc., priority 2016, published 2021)
